Data on one compound can be found in patent publication US20050069887A1, “Dna synthesis promoters dna polymerase-associated factors and utilization thereof” (priority 2001, published 2005).

The test system of one assay is EX-Taq DNA polymerase. As to the kind of experiment: PCR using EX-Taq DNA polymerase with added salts (Examples 1-1 to 1-3). It is filed as biochemical. The procedure:
The effect produced by the addition of oxalate ions was investigated in the PCR using EX-Taq DNA polymerase. A PCR buffer supplied with EX-Taq (TAKARA) and 0.3 μM of a pair of primers of SEQ ID Nos:8 and 9 and 0.2 mM dNTPs were used. PCR was performed by using 1.0 U EX-Taq DNA polymerase and 20 ng of genomic DNA derived from human cell line K562 as a template, with the influence on the PCR result caused by varying the concentration of added oxalate ion being investigated. The PCR conditions were as follows: 1 preliminary reaction of 94° C. for 2 minutes, and then 35 cycles of 94° C. for 15 seconds, 60° C. for 30 seconds and 68° C. for 8.5 minutes. This PCR amplification was performed by using GeneAmp2400 (PE Applied Biosystems).
Salts (potassium chloride, potassium acetate, potassium oxalate, sodium oxalate, potassium sulfate) were investigated for their effectiveness in PCR using EX-Taq DNA polymerase under the same conditions as Example 1. Each salts was used in an amount of 4 to 6 mM of ion equivalent

In another assay the target is T1, nPfu DNA polymerase (Pyrococcus furiosus, UniProt P61875).
T1 construct: α-Type Enzyme (Native Pfu); purchased STRATAGENE
T1 sequence (P61875 1-775): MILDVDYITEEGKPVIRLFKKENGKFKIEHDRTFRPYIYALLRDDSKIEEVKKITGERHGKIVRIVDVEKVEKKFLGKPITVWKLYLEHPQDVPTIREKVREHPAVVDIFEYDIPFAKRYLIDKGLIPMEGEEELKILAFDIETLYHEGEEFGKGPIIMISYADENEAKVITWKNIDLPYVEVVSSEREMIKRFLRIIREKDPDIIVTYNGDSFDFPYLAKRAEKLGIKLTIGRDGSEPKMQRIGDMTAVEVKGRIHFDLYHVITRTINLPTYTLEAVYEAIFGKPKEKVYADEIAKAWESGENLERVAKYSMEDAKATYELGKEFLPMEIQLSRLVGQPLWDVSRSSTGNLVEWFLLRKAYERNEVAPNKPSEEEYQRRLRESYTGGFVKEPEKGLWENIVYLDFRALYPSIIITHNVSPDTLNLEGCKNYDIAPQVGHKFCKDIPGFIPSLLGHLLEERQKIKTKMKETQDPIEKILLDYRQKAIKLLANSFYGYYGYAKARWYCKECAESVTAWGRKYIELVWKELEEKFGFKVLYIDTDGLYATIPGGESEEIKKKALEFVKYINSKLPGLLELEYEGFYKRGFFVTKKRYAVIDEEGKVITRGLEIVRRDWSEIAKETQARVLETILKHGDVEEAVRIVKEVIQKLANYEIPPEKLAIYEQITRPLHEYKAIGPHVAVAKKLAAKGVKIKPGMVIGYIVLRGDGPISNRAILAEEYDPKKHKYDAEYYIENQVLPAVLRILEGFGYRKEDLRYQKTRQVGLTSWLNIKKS
As to the kind of experiment: PCR using nPfu DNA polymerase with added salts (Examples 1-5, 1-6). The conditions noted are these: salt at 4-6 mM of ion equivalent, FIG. 7. It is filed as biochemical. The protocol:
The effect produced by the addition of oxalate ion in PCR was investigated using nPfu polymerase. A PCR buffer (20 mM Tris-HCl (pH 8.75), 10 mM KCl, 10 mM (NH4) 2SO4, 2 mM MgSO4, 0.1% Triton X-100, 100 μg/ml BSA) attached to nPfu (STRATAGENE), 0.2 mM of dNTPs, and 0.3 μM of a pair of primers of SEQ ID NOs:12, and 13 were used. PCR was performed by using 2.5 U nPfu DNA polymerase and 20 ng of genomic DNA derived from human cell line K562 as a template, with the influence on the PCR result caused by varying the concentration of oxalate ion being investigated. PCR was performed by using GeneAmp2400 (PE Applied Biosystems) with the following conditions: 1 preliminary reaction of 94° C. for 2 minutes, and then 35 cycles of 94° C. for 15 seconds, 60° C. for 30 seconds and 68° C. for 8 minutes.
Salts (potassium chloride, potassium acetate, potassium oxalate, potassium sulfate) were tested for their effectiveness in PCR using nPfu DNA polymerase under the same conditions as Example 1-5.

Structures are written as SMILES.

For `O=C([O-])C(=O)[O-].[K+].[K+]` [potassium oxalate], the “amplification of target DNA (electrophoresis pattern)” value was “amplification of the target DNA was observed” in the assay on EX-Taq DNA polymerase (carboxylate salts, FIG. 3); “Amplification was observed” with EX-Taq DNA polymerase (salt at 4 to 6 mM of ion equivalent, FIG. 2); “amplification of the target DNA observed” on nPfu DNA polymerase.
